Results taken from the supplement of paper PMC11003180.

How the values were obtained:
Assay in all cases: drug sensitivity score (DSS) from 5-dose viability curve (DSS (area-based score, 0 = no response)); higher = more sensitive (stronger viability inhibition); extreme values may be limits of the assay
[1] = system: MDCK wild-type - doxycycline; conditions: doxycycline: none; 72 h
How it was run: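 For 72 h at 37 °C, parental MDCK cells (no doxycycline, 2000 cells/well) were incubated on 384-well plates pre-spotted with 528 oncology drugs at five doses from 1 to 10,000 nM. CellTiter-Glo luminescence served as the viability readout, scaled per plate between vehicle and positive controls. The Breeze pipeline then fitted dose-response curves to yield drug sensitivity scores.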

[2] = system: MDCK p60AmotL2-inducible + doxycycline (p60AmotL2 expressing); conditions: doxycycline: 10 ng/mL; 72 h
How it was run: (§1)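 Parental MDCK cells and MDCK cells with a doxycycline-inducible transgene were both grown with doxycycline at 10 ng/mL in the medium before plating, then dispensed at 2000 cells/well into 384-well plates pre-spotted with an oncology library of 528 drugs at five doses (1-10,000 nM). After 72 h at 37 °C, CellTiter-Glo luminescence was recorded and scaled on each plate between vehicle and positive controls. This scaled signal served as the viability readout, and drug sensitivity scores were derived from dose-response curve fits in the Breeze pipeline.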

[3] = system: MDCK wild-type + doxycycline; conditions: doxycycline: 10 ng/mL; 72 h
How it was run: as §1

| Compound | drug sensitivity score [1] | drug sensitivity score [2] | drug sensitivity score [3] |
| --- | --- | --- | --- |
| O=C(Nc1ccc2[nH]nc(-c3ccncc3)c2c1)[C@@H]1CCN(CC(=O)N2CCN(c3ccc(-c4ncccn4)cc3)CC2)C1 | 3.5 | 10.7 | 6.7 |
| CNCc1ccc(-c2[nH]c3cc(F)cc4c3c2CCNC4=O)cc1 [Rucaparib] | 0 | 0 | 0 |
| CC[C@@H]1[C@H](F)C(=O)N[C@@H]1COc1nccc2cc(C(N)=O)c(OC)cc12 | 0 | 0.2 | 0.8 |
| COCCNCc1ccc(-c2cc3nccc(Oc4ccc(NC(=O)C5(C(=O)Nc6ccc(F)cc6)CC5)cc4F)c3s2)nc1 [Sitravatinib] | 0 | 1.7 | 1.2 |
| COc1cc(Br)c(Nc2nc(-c3c(C)nc4ncccn34)cs2)c(Br)c1 [PTC-209] | 9.6 | 13.8 | 11.4 |
| CC1=C(/C=C/C(C)=C/C=C/C(C)=C/C(=O)O)C(C)(C)CCC1 [Tretinoin] | 0.7 | 0 | 0 |
| O=C1c2c(O)ccc(O)c2C(=O)c2c(NCCNCCO)ccc(NCCNCCO)c21 [Mitoxantrone] | 7.1 | 15.5 | 8.9 |
| Cc1ccc(NC(=O)c2ccc(CN3CCN(C)CC3)cc2)cc1Nc1nccc(-c2cccnc2)n1 [Imatinib] | 2.7 | 3.4 | 0 |
| O=C(O)c1ccc(-c2c[nH]c3ncc(-c4ccccc4)cc23)cc1C1CCCC1 | 0 | 0.8 | 1 |
| COc1cc2ncnc(Nc3ccc(F)c(Cl)c3)c2cc1NC(=O)/C=C/CN1CCCCC1 [Dacomitinib] | 5.3 | 19.3 | 8.4 |
| O=c1[nH]c(=O)n([C@H]2C[C@H](O)[C@@H](CO)O2)cc1C(F)(F)F [Trifluridine] | 1.4 | 2.6 | 1.4 |
| Cc1cc(Nc2cc(N3CCN(C)CC3)nc(Sc3ccc(NC(=O)C4CC4)cc3)n2)n[nH]1 [Tozasertib] | 1.4 | 8.6 | 4.2 |
| CNC(=O)c1ccccc1Sc1ccc2c(/C=C/c3ccccn3)n[nH]c2c1 [Axitinib] | 0 | 5.7 | 0 |
| Cc1cnc(-c2ccccc2C(C)C)nc1NCc1ccc(-n2ccnn2)cc1 [ML323] | 0 | 1.4 | 0 |
| O=C(CCNC(=O)c1ccc(OC(F)(F)F)cc1)N[C@@H]1CCCc2ccccc21 [ML390] | 13.8 | 18.3 | 14.5 |
| CC[C@@]1(O)C(=O)OCc2c1cc1n(c2=O)Cc2cc3c(CN(C)C)c(O)ccc3nc2-1 [Topotecan] | 8.1 | 11.5 | 10.1 |
| NC(=O)c1cccc(-c2cccc(OC(=O)NC3CCCCC3)c2)c1 [URB597] | 0 | 0 | 0 |
| NC(=O)N1CCC(CC(=O)N2CCC([C@H]3c4ncc(Br)cc4CCc4cc(Cl)cc(Br)c43)CC2)CC1 [Lonafarnib] | 8.6 | 14.6 | 9.9 |
| COc1cc(OC)cc(N(CCNC(C)C)c2ccc3ncc(-c4cnn(C)c4)nc3c2)c1 [Erdafitinib] | 0 | 0 | 0 |
| CN(C)C1CCN(C(=O)c2ccc(NC(=O)Nc3ccc(-c4nc(N5CCOCC5)nc(N5CCOCC5)n4)cc3)cc2)CC1 [Gedatolisib] | 0 | 5.2 | 1.9 |
| COc1ccc(-c2ccc3c(N4CCOC[C@@H]4C)nc(N4CCOC[C@@H]4C)nc3n2)cc1CO [AZD8055] | 14.9 | 22.5 | 17.8 |
| Nc1nc(OCc2cc(Br)cs2)c2[nH]cnc2n1 [Lomeguatrib] | 0 | 0 | 0 |
| CC#CC(=O)N1CC[C@@H](n2c(=O)n(-c3ccc(Oc4ccccc4)cc3)c3c(N)ncnc32)C1 [Tirabrutinib] | 0 | 4 | 0.8 |

| Compound | drug sensitivity score [1] | drug sensitivity score [2] | drug sensitivity score [3] |
| --- | --- | --- | --- |
| Nc1nc2[nH]cc(CCc3ccc(C(=O)N[C@@H](CCC(=O)O)C(=O)O)cc3)c2c(=O)[nH]1 [Pemetrexed] | 5.5 | 7.1 | 5.3 |
| O=C(c1ccc(F)c(F)c1Nc1ccc(I)cc1F)N1CC(O)([C@@H]2CCCCN2)C1 [Cobimetinib] | 3.9 | 9.8 | 3.4 |
| CCOC(=O)CCNc1cc(N2CCc3ccccc3CC2)nc(-c2ccccn2)n1 [GSK-J4] | 13.7 | 3.9 | 3.8 |
| CN1CCC(COc2cnc(-c3cccc(Cn4nc(-c5cccc(C#N)c5)ccc4=O)c3)nc2)CC1 [Tepotinib] | 0 | 0.1 | 0 |
| CS(=O)(=O)c1ccc(C(=O)Nc2ccc(Cl)c(-c3ccccn3)c2)c(Cl)c1 [Vismodegib] | 0 | 0 | 0 |
| CC(C)C[C@H](NC(=O)[C@H](CCc1ccccc1)NC(=O)CN1CCOCC1)C(=O)N[C@@H](Cc1ccccc1)C(=O)N[C@@H](CC(C)C)C(=O)[C@@]1(C)CO1 [Carfilzomib] | 21.2 | 25.7 | 24.6 |
| Nc1nc(Cl)nc2c1ncn2[C@H]1C[C@H](O)[C@@H](CO)O1 [Cladribine] | 1.2 | 2.3 | 2.3 |
| CC(C)c1cc(C(=O)N2Cc3ccc(CN4CCN(C)CC4)cc3C2)c(O)cc1O [Onalespib] | 16.2 | 18.8 | 18.2 |
| CN1CCN(C2CCN(C(=O)Nc3cc(Oc4ccc(NC(=O)C5(C(=O)Nc6ccc(F)cc6)CC5)c(F)c4)ccn3)CC2)CC1 [Golvatinib] | 0 | 1 | 0 |
| Nc1cc(COc2c(Cl)cc(C[C@H](N)C(=O)O)cc2Cl)c2oc(-c3ccccc3)nc2c1 [JPH203] | 0 | 0 | 0 |
| Oc1nc(-c2ccc(C(F)(F)F)cc2)nc2c1CSCC2 [XAV-939] | 0 | 0 | 0 |
| COc1ccc(CCc2nc3cc(-c4c(C)noc4C)ccc3n2C[C@H](C)N2CCOCC2)cc1Cl [SGC-CBP30] | 0 | 4.3 | 2.7 |
| CC(=O)O[C@H]1C(=O)[C@@]2(C)[C@H]([C@H](OC(=O)c3ccccc3)[C@]3(O)C[C@H](OC(=O)[C@H](O)[C@@H](NC(=O)c4ccccc4)c4ccccc4)C(C)=C1C3(C)C)[C@]1(OC(C)=O)CO[C@@H]1C[C@@H]2O [Paclitaxel] | 15.8 | 21.8 | 19.4 |
| Cn1cnc2c(F)c(Nc3ccc(Br)cc3Cl)c(C(=O)NOCCO)cc21 [Selumetinib] | 0.9 | 10.1 | 4.1 |
| CCC1=C[C@@H]2CN(C1)Cc1c([nH]c3ccccc13)[C@@](C(=O)OC)(c1cc3c(cc1OC)N(C)[C@H]1[C@@](O)(C(=O)OC)[C@H](OC(C)=O)[C@]4(CC)C=CCN5CC[C@]31[C@@H]54)C2 [Vinorelbine] | 29.8 | 34.2 | 30.2 |
| CCN1C(=O)CNc2ncc(-c3ccc(-c4nc[nH]n4)nc3C)nc21 [CC-115] | 8.9 | 9.4 | 7.8 |
| COc1cc2c(NC3CCN(C(C)C)CC3)nc(N3CCC(F)(F)CC3)nc2cc1OCCCN1CCCC1 [UNC0642] | 0 | 0.2 | 0 |
| C[C@H]1C[C@@H]2[C@H]([C@@H](O)C[C@@]3(C)[C@H]2CC[C@]3(O)C(=O)CO)[C@@]2(C)C=CC(=O)C=C12 [Methylprednisolone] | 0 | 0 | 0 |
| CNC(=O)c1ccc(N2C(=S)N(c3ccc(C#N)c(C(F)(F)F)c3)C(=O)C2(C)C)cc1F [Enzalutamide] | 0 | 0 | 0 |
| O=C(O)c1ccc2c(c1)nc(Nc1cccc(Cl)c1)c1ccncc12 [Silmitasertib] | 0 | 1.6 | 1.4 |
| COc1ccc(-c2nc(N3CCOCC3)c3sc(CN(C)c4ncc(C(=O)NO)cn4)cc3n2)cn1 [CUDC-907] | 27.2 | 30.3 | 28.3 |
| CC1(COc2ccc3c(c2)ncn3-c2ccc3cccc(N4CCC(N)CC4)c3n2)COC1 [Crenolanib] | 5.4 | 6.5 | 8.1 |
